The record followed here is BindingDB's records for doi:10.3109/14756366.2011.555944 (Aristotle University of Thessaloniki, 2011).

This experiment has as its target T1, Seed linoleate 13S-lipoxygenase-1 (Glycine max, UniProt P08170).
T1 sequence (P08170 whole entry): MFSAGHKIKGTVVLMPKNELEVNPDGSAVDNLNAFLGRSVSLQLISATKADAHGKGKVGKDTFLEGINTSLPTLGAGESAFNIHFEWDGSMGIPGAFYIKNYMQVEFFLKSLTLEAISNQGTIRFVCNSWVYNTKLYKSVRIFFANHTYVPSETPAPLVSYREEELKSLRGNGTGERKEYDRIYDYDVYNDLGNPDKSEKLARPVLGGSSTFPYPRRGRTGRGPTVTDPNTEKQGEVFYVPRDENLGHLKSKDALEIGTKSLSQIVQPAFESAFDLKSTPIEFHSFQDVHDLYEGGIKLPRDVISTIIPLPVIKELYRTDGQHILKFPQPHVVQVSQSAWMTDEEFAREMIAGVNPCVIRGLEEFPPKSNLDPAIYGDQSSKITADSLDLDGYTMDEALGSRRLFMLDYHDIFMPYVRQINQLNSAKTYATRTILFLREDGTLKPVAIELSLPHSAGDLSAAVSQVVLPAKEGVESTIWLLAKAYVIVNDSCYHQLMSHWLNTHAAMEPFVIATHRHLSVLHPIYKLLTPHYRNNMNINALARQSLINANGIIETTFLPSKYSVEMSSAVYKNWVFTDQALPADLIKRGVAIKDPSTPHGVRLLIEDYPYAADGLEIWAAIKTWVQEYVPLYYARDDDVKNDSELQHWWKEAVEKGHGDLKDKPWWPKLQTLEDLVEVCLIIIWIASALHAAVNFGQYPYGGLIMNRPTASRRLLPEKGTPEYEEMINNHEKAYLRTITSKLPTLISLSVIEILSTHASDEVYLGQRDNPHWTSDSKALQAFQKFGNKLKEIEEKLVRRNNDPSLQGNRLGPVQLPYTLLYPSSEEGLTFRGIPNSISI
Description: In Vitro LOX Inhibition Assay. As to conditions: 25 °C.

Broadly, the IC50 is the concentration that gives 50% inhibition. A lower IC50 goes with greater potency in that assay. `Cc1cc(=O)oc2c3c(ccc12)OCC=CC3` [4-Methyl-8,11-dihydro-2H-oxepino[2,3-h]chromen-2-one (7b)] gave a concentration for half-maximal inhibition (IC50) of 180 µM.
For the molecule `O=c1ccc2ccc3c(c2o1)CC=CCO3` [8,11-Dihydro-2H-oxepino[2,3-h]chromen-2-one (7a)], the half-maximal inhibitory concentration (IC50) came out at 310 µM.
